Results as given in US8664257B2, “Oxygen-substituted 3-heteroaroylamino-propionic acid derivatives and their use as pharmaceuticals” (Sanofi, priority 2010, dated 2014).
pIC50: −log10 of the molar value. Where two headings read alike, the source gives them in different places.

Target: T1, Recombinant human cathepsin A (Homo sapiens, UniProt P10619)
T1 construct: Recombinant human cathepsin A (residues 29-480, with a C-terminal 10-His tag); 10-His (C); purchased R&D Systems 1049-SE
T1 sequence (P10619 29-312 limits assumed): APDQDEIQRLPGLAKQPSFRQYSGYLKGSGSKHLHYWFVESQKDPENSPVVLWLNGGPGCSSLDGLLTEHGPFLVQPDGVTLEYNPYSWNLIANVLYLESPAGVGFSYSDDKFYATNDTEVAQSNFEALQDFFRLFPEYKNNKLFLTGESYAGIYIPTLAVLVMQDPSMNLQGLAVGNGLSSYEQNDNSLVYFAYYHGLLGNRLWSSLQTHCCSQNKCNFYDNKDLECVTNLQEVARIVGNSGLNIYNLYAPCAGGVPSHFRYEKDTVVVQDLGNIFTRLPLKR
T1 sequence (P10619 327-480 limits assumed): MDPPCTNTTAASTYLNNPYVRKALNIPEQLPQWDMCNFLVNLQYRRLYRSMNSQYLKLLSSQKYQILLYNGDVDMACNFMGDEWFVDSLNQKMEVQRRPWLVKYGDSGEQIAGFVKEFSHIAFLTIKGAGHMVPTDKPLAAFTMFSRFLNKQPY
Test: Cathepsin A inhibitory activity
Assay type: biochemical
Procedure, shortened: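 Human cathepsin A (res. 29-480, C-His10) pre-activated with cathepsin L (MES pH 6.0, DTT, 15 min, 37 °C; quenched with 10 μM E-64). Enzyme (833 ng/ml) preincubated 15 min RT with compound in MES pH 5.5/DTT, then 2 μM Bodipy FL-bradykinin for 15 min RT. Capillary electrophoresis product/substrate peak areas; IC50 from % inhibition.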

[1] = read-out: Activity (2): Cathepsin A inhibitory activity (IC50 class)
[2] = read-out: Activity (2): Cathepsin A inhibitory activity, IC50 class
[3] = pharmacological test "Cathepsin A inhibitory activity", IC50 given as class A/B/C, read-out: Activity (2): Cathepsin A inhibitory activity, IC50 class
[4] = recombinant human cathepsin A 833 ng/ml, Bodipy FL-labeled bradykinin 2 μM, pH 5.5, read-out: CATH-A IC50
[5] = recombinant human cathepsin A, read-out: Activity (2): Cathepsin A inhibitory activity, IC50 class

Row | SMILES | pIC50 [1] | pIC50 [2] | also measured
1 | Cc1ccc([C@H](CC(=O)O)NC(=O)c2cc(OC[C@@](C)(O)C(C)C)n(-c3ccccc3F)n2)c(C)c1 [Example 772, (S)-3-(2,4-Dimethyl-phenyl)-3-{[1-(2-fluoro-phenyl)-5-((S)-2-hydroxy-2,3-dimethyl-butoxy)-1H-pyrazole-3-carbonyl]-amino}-propionic acid] | > 7.00 | – | –
2 | O=C(O)CC(NC(=O)c1cc(O)n(-c2ccc(F)cc2F)n1)c1ccc(OC(F)(F)F)cc1 (stereo not drawn) [Example 187] | – | – | pIC50 [3]: 6.00 to 7.00
3 | O=C(O)CC(NC(=O)c1cc(O)n(-c2ccccc2Cl)n1)c1cccc2c1OC(F)(F)O2 (stereo not drawn) [Example 503, 3-{[1-(2-Chloro-phenyl)-5-hydroxy-1H-pyrazole-3-carbonyl]-amino}-3-(2,2-difluoro-benzo[1,3]dioxol-4-yl)-propionic acid] | – | – | pIC50 [4]: 6.41; pIC50 [5]: 6.00 to 7.00
4 | Cc1ccccc1[C@H](CC(=O)O)NC(=O)c1cc(OCCC(C)(C)C)n(-c2ccccc2F)n1 [Example 659] | > 7.00 | – | –
5 | CCCC(CC(=O)O)NC(=O)c1cc(O)n(-c2ccccc2)n1 (stereo not drawn) [Example 2] | – | 4.52 to 6.00 | –
6 | O=C(O)CC(NC(=O)c1cc(O)n(-c2ccc(F)cc2)n1)c1cccc2c1OC(F)(F)O2 (stereo not drawn) [Example 491] | – | – | pIC50 [5]: 6.00 to 7.00
7 | O=C(O)CC(NC(=O)c1cc(O)n(-c2ccccc2F)n1)c1ccc(-c2ccccc2)cc1 (stereo not drawn) [Example 150] | – | – | pIC50 [3]: > 7.00
8 | CCC(O)(CC)COc1cc(C(=O)N[C@@H](CC(=O)O)c2ccc(Cl)cc2Cl)nn1-c1ccccc1F [Example 762, (S)-3-(2,4-Dichloro-phenyl)-3-{[5-(2-ethyl-2-hydroxy-butoxy)-1-(2-fluoro-phenyl)-1H-pyrazole-3-carbonyl]-amino}-propionic acid] | > 7.00 | – | –
9 | Cc1ccc(C)c(-n2nc(C(=O)NC(CC(=O)O)C3CCCC3)cc2O)c1 (stereo not drawn) [Example 44] | – | 4.52 to 6.00 | –
10 | CC(C)C(C)(O)COc1cc(C(=O)NC(CC(=O)O)Cc2ccccc2)nn1-c1ccccc1F (stereo not drawn) [Example 829, 3-{[1-(2-Fluoro-phenyl)-5-(2-hydroxy-2,3-dimethyl-butoxy)-1H-pyrazole-3-carbonyl]-amino}-4-phenyl-butyric acid] | – | 6.00 to 7.00 | –
11 | COc1ccccc1[C@H](CC(=O)O)NC(=O)c1cc(O)n(-c2cccc(Cl)c2)n1 [Example 253] | – | – | pIC50 [3]: 6.00 to 7.00
12 | O=C(O)C[C@H](NC(=O)c1cc(O)n(-c2ccccc2F)n1)c1ccc(C(F)(F)F)cc1 [Example 121] | – | 6.00 to 7.00 | –
13 | COc1cc(C(=O)N[C@@H](CC(=O)NCc2nnn[nH]2)c2ccccc2C)nn1-c1ccccc1F [Example 928] | – | – | pIC50 [5]: 6.00 to 7.00
14 | COc1cc(C(=O)N[C@@H](CC(=O)NCC(C)(C)CO)c2ccccc2C)nn1-c1ccccc1F [Example 925, 1-(2-Fluoro-phenyl)-5-methoxy-1H-pyrazole-3-carboxylic acid [(S)-2-(3-hydroxy-2,2-dimethyl-propylcarbamoyl)-1-o-tolyl-ethyl]-amide] | – | – | pIC50 [5]: 4.52 to 6.00
15 | COc1ccccc1[C@H](CC(=O)O)NC(=O)c1cc(OCC(C)(O)C(C)C)n(-c2ccccc2F)n1 (stereo partly drawn) [Example 811, (S)-3-{[1-(2-Fluoro-phenyl)-5-(2-hydroxy-2,3-dimethyl-butoxy)-1H-pyrazole-3-carbonyl]-amino}-3-(2-methoxy-phenyl)-propionic acid] | – | > 7.00 | –
16 | COc1ccc(F)cc1C(CC(=O)O)NC(=O)c1cc(O)n(-c2cccc(F)c2)n1 (stereo not drawn) [Example 520] | – | – | pIC50 [5]: 6.00 to 7.00

Row | SMILES | pIC50 [1] | pIC50 [2] | also measured
17 | COc1ccc([C@H](CC(=O)O)NC(=O)c2cc(OC[C@@](C)(O)C(C)C)n(-c3ccccc3F)n2)cc1 [Example 840, (S)-3-{[1-(2-Fluoro-phenyl)-5-((S)-2-hydroxy-2,3-dimethyl-butoxy)-1H-pyrazole-3-carbonyl]-amino}-3-(4-methoxy-phenyl)-propionic acid] | – | 4.52 to 6.00 | –
18 | Cc1ccc(C)c(-n2nc(C(=O)NC3(CC(=O)O)CCCC3)cc2O)c1 [Example 42] | – | 4.52 to 6.00 | –
19 | CCc1ccc(C(CC(=O)O)NC(=O)c2cc(O)n(-c3cc(C)ccc3C)n2)cc1 (stereo not drawn) [Example 41] | – | 4.52 to 6.00 | –
20 | O=C(O)C[C@H](NC(=O)c1cc(OCC2CC2)n(-c2ccccc2F)n1)c1ccc(Cl)cc1Cl [Example 693] | 6.00 to 7.00 | – | –
21 | CC(C)(C)[C@](C)(O)COc1cc(C(=O)N[C@@H](CC(=O)O)c2cccc(F)c2)nn1-c1ccccc1F [Example 819, (S)-3-(3-Fluoro-phenyl)-3-{[1-(2-fluoro-phenyl)-5-((S)-2-hydroxy-2,3,3-trimethyl-butoxy)-1H-pyrazole-3-carbonyl]-amino}-propionic acid] | – | > 7.00 | –
22 | O=C(O)CC(NC(=O)c1cc(O)n(-c2ccccc2F)n1)c1ccc(-c2ccc(C(F)(F)F)cc2)cc1 (stereo not drawn) [Example 576] | 6.00 to 7.00 | – | –
23 | O=C(O)C[C@H](NC(=O)c1cc(O)n(-c2cccc(Cl)c2)n1)c1cccc(Cl)c1Cl [Example 412] | – | – | pIC50 [5]: 4.52 to 6.00
24 | Cc1ccccc1[C@H](CC(=O)O)NC(=O)c1cc(OCC2CCCCO2)n(-c2ccccc2F)n1 (stereo partly drawn) [Example 653] | > 7.00 | – | –
25 | CC(C)[C@](C)(O)COc1cc(C(=O)N[C@@H](CC(=O)O)c2ccccc2F)nn1-c1ccccc1F [Example 835, (S)-3-(2-Fluoro-phenyl)-3-{[1-(2-fluoro-phenyl)-5-((S)-2-hydroxy-2,3-dimethyl-butoxy)-1H-pyrazole-3-carbonyl]-amino}-propionic acid] | – | > 7.00 | –
26 | Cc1ccccc1[C@H](CC(=O)O)NC(=O)c1cc(OC[C@](C)(O)C2CC2)n(-c2ccccc2F)n1 (single isomer, unassigned) [Example 763] | > 7.00 | – | –
27 | COc1cc(C(=O)N[C@@H](CC(=O)N[C@@H](CO)C(C)C)c2ccccc2C)nn1-c1ccccc1F [Example 927, 1-(2-Fluoro-phenyl)-5-methoxy-1H-pyrazole-3-carboxylic acid [(S)-2-((R)-1-hydroxymethyl-2-methyl-propylcarbamoyl)-1-o-tolyl-ethyl]-amide] | – | – | pIC50 [5]: 6.00 to 7.00
28 | O=C(O)C[C@H](NC(=O)c1cc(O)n(-c2ccc(Cl)cc2)n1)c1ccccc1Br [Example 270] | – | – | pIC50 [3]: 6.00 to 7.00
29 | O=C(O)CC(NC(=O)c1cc(O)n(-c2ccccc2)n1)c1ccc(-n2cccn2)cc1 (stereo not drawn) [Example 578] | 4.52 to 6.00 | – | –
30 | O=C(O)C[C@H](NC(=O)c1cc(O)n(-c2cccc(Cl)c2)n1)c1ccccc1Cl [Example 514, (S)-3-(2-Chloro-phenyl)-3-{[1-(3-chloro-phenyl)-5-hydroxy-1H-pyrazole-3-carbonyl]-amino}-propionic acid] | – | – | pIC50 [4]: 6.52; pIC50 [5]: 6.00 to 7.00
31 | CCCCCCOc1cc(C(=O)N[C@@H](CC(=O)O)c2ccccc2C)nn1-c1ccccc1F [Example 660] | > 7.00 | – | –
32 | Cc1ccccc1[C@H](CC(=O)O)NC(=O)c1cc(OCc2ccon2)n(-c2ccccc2F)n1 [Example 647] | > 7.00 | – | –

Further lines, with some results ahead:

Row | pIC50 [1] | pIC50 [2] | SMILES | also measured
33 | – | > 7.00 | O=C(O)C[C@H](NC(=O)c1cc(O)n(-c2ccccc2F)n1)c1ccccc1Br [Example 397] | –
34 | – | 6.00 to 7.00 | Cc1ccc([C@H](CC(=O)O)NC(=O)c2cc(O)n(-c3ccccc3Cl)n2)cc1 [Example 135, (S)-3-{[1-(2-Chloro-phenyl)-5-hydroxy-1H-pyrazole-3-carbonyl]-amino}-3-p-tolyl-propionic acid] | pIC50 [4]: 6.68
35 | 4.52 to 6.00 | – | COc1ccc(C(F)(F)F)cc1C(CC(=O)O)NC(=O)c1cc(O)n(-c2ccccc2F)n1 (stereo not drawn) [Example 554, 3-{[1-(2-Fluoro-phenyl)-5-hydroxy-1H-pyrazole-3-carbonyl]-amino}-3-(2-methoxy-5-trifluoromethyl-phenyl)-propionic acid] | pIC50 [4]: 5.73
36 | – | 6.00 to 7.00 | COc1ccc(Cl)cc1C(CC(=O)O)NC(=O)c1cc(O)n(-c2cccc(F)c2)n1 (stereo not drawn) [Example 309] | –
37 | – | 4.52 to 6.00 | COc1ccc(C(CC(=O)O)NC(=O)c2cc(O)n(-c3ccc(Cl)cc3)n2)c(OC)c1 (stereo not drawn) [Example 273] | –
38 | > 7.00 | – | COc1cc(C(=O)N[C@@H](CC(=O)O)c2ccccc2C)nn1-c1cccc(F)c1 [Example 609] | –
39 | – | 6.00 to 7.00 | Cc1ccc(C(CC(=O)O)NC(=O)c2cc(O)n(-c3ccccc3)n2)cc1 (stereo not drawn) [Example 64] | –
40 | – | 4.52 to 6.00 | O=C(O)CC(NC(=O)c1cc(O)n(-c2ccc(F)cc2)n1)c1ccc(F)cc1F (stereo not drawn) [Example 86] | –
41 | – | 6.00 to 7.00 | COc1ccccc1[C@H](CC(=O)O)NC(=O)c1cc(O)n(-c2ccccc2F)n1 [Example 122] | –
42 | 6.00 to 7.00 | – | CCOc1cc(C(=O)N[C@@H](CC(=O)O)c2ccccc2OC)nn1-c1ccccc1F [Example 709] | –
43 | > 7.00 | – | CCOc1cc(C(=O)NC(CC(=O)O)c2ccc(OC)cc2Cl)nn1-c1ccccc1F (stereo not drawn) [Example 724] | –
44 | – | 6.00 to 7.00 | O=C(O)C[C@H](NC(=O)c1cc(O)n(-c2ccc(Cl)cc2)n1)c1cccc(Cl)c1Cl [Example 277] | –
45 | 6.00 to 7.00 | – | COc1ccc(F)c(C(CC(=O)O)NC(=O)c2cc(O)n(-c3ccccc3F)n2)c1 (stereo not drawn) [Example 553, 3-(2-Fluoro-5-methoxy-phenyl)-3-{[1-(2-fluoro-phenyl)-5-hydroxy-1H-pyrazole-3-carbonyl]-amino}-propionic acid] | pIC50 [4]: 6.14
46 | – | 6.00 to 7.00 | COc1ccc(C(CC(=O)O)NC(=O)c2cc(O)n(-c3ccccc3)n2)c(C)c1 (stereo not drawn) [Example 373] | –
